Tests used:
ELK1 = target: T1, ELK1 (Homo sapiens, UniProt P19419); assay: Fluorescence polarization DNA binding assay, auto-inhibited ELK1; conditions: auto-inhibited construct; NA = no activity up to 2000 μM; >number = estimate from fit with lower bound
T1 sequence (P19419 1-428): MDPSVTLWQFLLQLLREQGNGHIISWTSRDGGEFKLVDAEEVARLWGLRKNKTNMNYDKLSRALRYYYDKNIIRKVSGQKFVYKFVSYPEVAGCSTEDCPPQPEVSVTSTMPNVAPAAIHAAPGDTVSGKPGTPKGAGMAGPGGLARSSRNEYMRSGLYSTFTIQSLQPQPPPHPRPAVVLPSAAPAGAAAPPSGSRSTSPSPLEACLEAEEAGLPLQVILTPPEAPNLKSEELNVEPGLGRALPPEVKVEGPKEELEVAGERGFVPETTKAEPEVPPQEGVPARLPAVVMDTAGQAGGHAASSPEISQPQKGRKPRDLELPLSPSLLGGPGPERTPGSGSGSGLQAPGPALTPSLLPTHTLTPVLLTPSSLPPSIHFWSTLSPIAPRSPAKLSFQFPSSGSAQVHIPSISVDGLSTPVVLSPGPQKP
From the text: (§1) The constructs of ERG which retain full auto-inhibition were previously delineated (17). Fluorescence polarization-based assays for DNA binding were then developed, which were used for screening. In addition to the auto-inhibited form of ERG, it was important to also have an assay using its Ets domain, i.e., the uninhibited form of the protein, to compare action of compounds. Compounds which are active against the auto-inhibited form of the protein but have little or no effect on the uninhibited form were sought, indicating their binding is mediated by the non-conserved auto-inhibitory modules rather than the highly conserved Ets domain. […] Fragment screening is an alternative approach that has gained a great deal of favor in the pharma industry recently that employs relatively small molecules (22). […] The auto-inhibited construct was screened first with a dose dependent screen of actives with ERGi using fluorescein- and Texas Red-DNA and then the positive hits were counter-screened with the ERG Ets domain, specifically a screen of actives with ERGu, the latter screen serving to remove compounds which bind to the conserved Ets domain or to DNA, which left 26 compounds which inhibit the auto-inhibited construct of ERG binding to DNA but not the uninhibited ERG (the Ets domain) binding to DNA. ERGi is the auto-inhibited construct of ERG (272-388) and ERGu is the uninhibited DNA binding domain construct of ERG (289-378). […] The IC50 of the validated hits was 0.6-7 mM. […] Importantly, chemical shift changes upon compound addition are observed in the ^15N-^1H HSQC NMR spectra of ERG for amino acids located in the auto-inhibitory modules of ERG, indicating they do interact with these regions of the protein. It is critical to also develop assays for other ETS family members to assess the specificity of action of the compounds identified in the screen, so auto-inhibited constructs were expressed and assays were developed for five other ETS family members and assays for additional members of the family were also developed.
(§2) Using a standard medicinal chemistry approach, further optimization of the fragment hits were pursued. The specificity of parent fragments and their optimized derivatives with 5 additional Ets proteins which are representatives of 5 additional sub-families, were evaluated, as shown in Table 2. […] NA in Table 2 represents no activity up to the 2000 μM maximum concentration. >number in Table 2 represents some activity at highest concentrations so data fit with a lower bound to obtain an estimate of IC50.

Spi1 (PU.1) = Spi1 (PU.1) (Homo sapiens, UniProt P17947); assay: Fluorescence polarization DNA binding assay, auto-inhibited PU.1; conditions: auto-inhibited construct; NA = no activity up to 2000 μM; >number = estimate from fit with lower bound
From the text: as §1, §2

ELF3 = target: T2, ELF3 (Homo sapiens, UniProt P78545); assay: Fluorescence polarization DNA binding assay, auto-inhibited ELF3; conditions: auto-inhibited construct; NA = no activity up to 2000 μM; >number = estimate from fit with lower bound
T2 sequence (P78545 1-371): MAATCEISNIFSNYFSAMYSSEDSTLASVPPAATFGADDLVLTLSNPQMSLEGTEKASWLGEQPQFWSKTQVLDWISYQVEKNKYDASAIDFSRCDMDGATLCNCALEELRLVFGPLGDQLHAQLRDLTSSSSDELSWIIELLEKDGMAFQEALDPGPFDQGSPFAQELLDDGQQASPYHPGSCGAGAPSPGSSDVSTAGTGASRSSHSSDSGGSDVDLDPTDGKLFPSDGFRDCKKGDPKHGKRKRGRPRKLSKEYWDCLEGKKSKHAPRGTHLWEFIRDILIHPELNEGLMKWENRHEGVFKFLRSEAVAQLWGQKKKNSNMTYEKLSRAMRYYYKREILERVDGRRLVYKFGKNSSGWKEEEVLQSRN
From the text: as §1, §2

[1] = target: T3, ERG auto-inhibited construct (ERGi, 272-388) (Homo sapiens, UniProt P11308); assay: ERGi-DNA fluorescence polarization assay; assay type: binding; conditions: FP DNA binding; maximum concentration 2000 μM; read-out: IC50 ERG Auto-inhibited construct
T3 construct: made in house
T3 sequence (P11308 272-388 isoform P11308-1): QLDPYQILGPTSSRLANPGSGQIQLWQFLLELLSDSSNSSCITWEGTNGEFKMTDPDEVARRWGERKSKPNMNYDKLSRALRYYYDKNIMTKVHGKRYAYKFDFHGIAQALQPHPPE
From the text: as §1, §2

Ets1 = target: T4, Ets1 (Homo sapiens, UniProt P14921); assay: Fluorescence polarization DNA binding assay, auto-inhibited Ets-1; conditions: auto-inhibited construct; NA = no activity up to 2000 μM; >number = estimate from fit with lower bound
T4 sequence (P14921 1-441): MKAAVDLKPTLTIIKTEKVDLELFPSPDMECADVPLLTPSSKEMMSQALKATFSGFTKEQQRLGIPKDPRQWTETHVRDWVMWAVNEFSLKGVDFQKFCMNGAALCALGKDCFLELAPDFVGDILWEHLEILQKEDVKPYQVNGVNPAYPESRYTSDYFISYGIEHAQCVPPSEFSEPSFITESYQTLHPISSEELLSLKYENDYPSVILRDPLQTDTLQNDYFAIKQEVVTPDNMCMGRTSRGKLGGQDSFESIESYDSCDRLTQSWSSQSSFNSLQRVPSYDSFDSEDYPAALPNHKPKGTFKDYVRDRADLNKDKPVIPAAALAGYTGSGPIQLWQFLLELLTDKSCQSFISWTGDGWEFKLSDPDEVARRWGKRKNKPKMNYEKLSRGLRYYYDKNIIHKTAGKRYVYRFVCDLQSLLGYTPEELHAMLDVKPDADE
From the text: as §1, §2

ETV6 (TEL) = target: T5, ETV6 (TEL) (Homo sapiens, UniProt P41212); assay: Fluorescence polarization DNA binding assay, auto-inhibited ETV6; conditions: auto-inhibited construct; NA = no activity up to 2000 μM; >number = estimate from fit with lower bound
T5 sequence (P41212 1-452): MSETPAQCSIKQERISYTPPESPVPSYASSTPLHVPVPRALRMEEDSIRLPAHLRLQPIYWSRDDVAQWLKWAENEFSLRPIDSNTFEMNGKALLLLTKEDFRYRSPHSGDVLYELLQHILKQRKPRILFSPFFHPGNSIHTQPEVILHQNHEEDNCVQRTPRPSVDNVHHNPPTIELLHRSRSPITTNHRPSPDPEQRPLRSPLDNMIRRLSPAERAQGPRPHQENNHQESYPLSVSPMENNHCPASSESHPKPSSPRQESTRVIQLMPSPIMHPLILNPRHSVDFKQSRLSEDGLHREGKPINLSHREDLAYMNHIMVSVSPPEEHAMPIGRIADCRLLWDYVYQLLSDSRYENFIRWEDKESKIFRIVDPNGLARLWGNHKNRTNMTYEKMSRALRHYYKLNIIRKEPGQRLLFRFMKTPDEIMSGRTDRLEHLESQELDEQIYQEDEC
From the text: as §1, §2

[2] = target: T6, ERG isolated Ets domain (ERGu, 289-378) (Homo sapiens, UniProt P11308); assay: Fluorescence polarization DNA binding assay, uninhibited ERG; conditions: FP DNA binding, NA = no activity up to 2000 μM, >number = estimate from fit with lower bound
T6 construct: made in house
T6 sequence (P11308 289-378 isoform P11308-1): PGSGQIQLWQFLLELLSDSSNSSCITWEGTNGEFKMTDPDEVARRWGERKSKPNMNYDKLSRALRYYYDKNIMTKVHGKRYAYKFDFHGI
From the text: as §1, §2

leukemia cell lines = assay: Panel of leukemia cell lines; assay type: cell-based; conditions: Jurkat, RS4-11, Kasumi, K562, THP-1
Procedure: (§3) The compounds of formula (I), in particular those in Table 3, were tested for their effects on the growth of Ewing sarcoma cell lines as well as a rhabdomyosarcoma cell line as a control. The inhibitors are active against Ewing sarcoma cell lines with sub μM EC50 values but not active with the rhabdomyosarcoma cell line. The relative activity of the compounds in the biochemical assay was also observed in the cellular data, consistent with an on-target mechanism of action. […] The inhibitor decreases expression of the two genes activated by EWS-FL11 and activates the expression of the gene repressed by EWS-FLI1, consistent with an on-target mechanism of action. The inhibitors have also been evaluated across a panel of leukemia cell lines and see selective activity on cell lines with an ERG and/or FLI1 dependence.
ERG inhibitor effects on leukemia cell lines. FIG. 17A-17D and FIG. 18A-18C show the effects of the ERG inhibitor on several leukemia cell lines. […] ERG inhibitors show efficacy against T-ALL cell line (Jurkat) and selective activity against specific leukemia cell lines. […] As expected from previous literature indicating a strong dependence on ERG for T-ALL, the T-ALL cell line Jurkat is quite sensitive to the ERG inhibitors (sub μM IC50 values). […]

[3] = tested on: Ewing's sarcoma cell lines; assay: Growth of Ewing's sarcoma cell lines; assay type: cell-based; conditions: read-out: IC50 values for inhibition of the growth
Procedure: as §3
Evaluation of ERG inhibitors on Ewing's sarcoma cell lines. FIGS. 16A-16D show the results of treatment of Ewing's sarcoma cell lines with the bivalent ERG inhibitors. […] Ewing's sarcoma has EWS-FLI1 and EWS-ERG fusions (FLI1 is highly homologous to ERG). ERG inhibitors show submicromolar EC50 values for Ewing's sarcoma cell lines. […] Importantly, for the unrelated rhabdomyosarcoma cell line included in this panel, there was minimal inhibition of growth.

ERG = target: T7, ERG (Homo sapiens, UniProt P11308); assay: Time-dependent ERG-DNA fluorescence polarization assay; conditions: time-dependent inhibition of ERG-DNA binding, irreversible inhibitor
T7 sequence (P11308 1-462 isoform P11308-1): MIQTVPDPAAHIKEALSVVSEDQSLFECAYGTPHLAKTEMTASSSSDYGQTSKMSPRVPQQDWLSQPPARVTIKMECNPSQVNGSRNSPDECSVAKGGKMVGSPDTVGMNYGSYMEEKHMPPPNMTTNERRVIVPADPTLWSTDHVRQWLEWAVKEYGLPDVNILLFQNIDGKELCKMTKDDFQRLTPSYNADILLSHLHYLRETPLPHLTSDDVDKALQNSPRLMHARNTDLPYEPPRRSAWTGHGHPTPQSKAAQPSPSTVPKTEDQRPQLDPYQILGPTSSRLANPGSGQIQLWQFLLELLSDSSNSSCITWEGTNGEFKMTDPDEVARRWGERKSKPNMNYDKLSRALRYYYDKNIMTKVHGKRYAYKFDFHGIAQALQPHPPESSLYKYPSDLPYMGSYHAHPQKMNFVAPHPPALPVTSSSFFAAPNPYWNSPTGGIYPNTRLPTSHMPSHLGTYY
Procedure: To assay such compounds time-dependent inhibition of ERG-DNA binding was recorded using a fluorescence polarization (FP) based assay and the rates were fitted to derive KI and kinact for the compounds which were ranked based on the kinact/KI values as has been described previously.
These compounds were assayed using the time-dependent ERG-DNA assay described above. Importantly, time-dependent inhibition was observed, a hallmark of irreversible inhibitors. […] ERG inhibitors show time-dependent inhibition characteristics of irreversible inhibitors based on the following formula: […]
Kobs values were determined from the initial slope for the first 15 minutes. NMR chemical shift perturbation data was consistent with 2 binding sites on ERG. FIG. 14A and FIG. 14B show selected changes in chemical shift for resonances in the ^15N-^1H HSQC NMR spectrum of ERGi upon addition of KK-36-25.

**Q.** What does the source list for `CCNc1cc(-c2nc3ccccc3o2)ccc1C` [KK-23-07]?
**A.** IC50 (ELK1): > 2.5 mM; IC50 (Spi1 (PU.1)): > 3.3 mM; IC50 (ELF3): 1.74 mM; IC50 [1]: 0.837 mM; IC50 (Ets1): > 2.6 mM; IC50 (ETV6 (TEL)): > 4.4 mM; IC50 [2]: > 2 mM

**Q.** What does the source list for `Cc1ccc(-c2nc3cc(Cl)c(NC(=O)CCOCCn4cc(COCCOCCOc5ccc(S(=O)(=O)C6CCN(C(=O)/C=C/c7cc8ccccc8o7)C6)cc5)nn4)cc3o2)cc1` (centres unmarked) [KK-36-25]?
**A.** selectivity across leukemia cell lines (leukemia cell lines): selective for Leukemia cell lines dependent on ERG; IC50 [3]: ≤ 0.001 mM; Ki (ERG): 0.0063 mM

**Q.** For `Cc1ccc(-c2nc3cc(Cl)c(NC(=O)CCOCCn4cc(COCCOCCOCCOc5ccc(S(=O)(=O)C6CCN(C(=O)/C=C/c7cc8ccccc8o7)C6)cc5)nn4)cc3o2)cc1` (centres unmarked) [KK-36-84], which IC50 [3] is on record?
**A.** ≤ 0.001 mM
